Entries after “also recorded” stand apart in the source; their conditions may differ. Residues, ends and D or L forms follow the SMILES beside them. No end group written: not given here.

The subject of data set [1] is isolated adult rabbit cardiac myocytes. The data set can be described thus: Sarcomere shortening in isolated adult rabbit cardiac myocytes. The format is cell-based. The conditions noted are these: pacing at 0.5 Hz and 1 Hz. How it is done:
FIG. 7. A. Representative sarcomere shortening traces in isolated adult rabbit cardiac myocytes paced at 0.5 Hz. A signal-averaged recording from 10 traces was made in myocytes 1 day after isolation (n=3). Recordings show shortening before and 15 minutes after initiating perfusion with 10^−10 M hRFRP-1 or media (control) at 37° C.
Adult rat and rabbit ventricular cardiac myocytes were isolated as previously described (Westfall, M. V. Et al. (1997), Westfall, M. V. and Borton, A. R. (2003)). Hearts from Sprague-Dawley rats and New Zealand white rabbits were perfused and enzymatically digested to isolate myocytes; the protocol was approved by The University of Michigan University Committee on Use and Care of Animals (UCUCA) in accordance with university and federal regulatory guidelines. […]
Sarcomere shortening was detected using a video-based detection system (IonOptix, MA, USA) as described earlier (Westfall, M. V. and Borton, A. R. (2003)). […] Signal averaged data were analyzed to determine resting sarcomere length, shortening amplitude (peak shortening), shortening rate (departure velocity), and re-lengthening rate (return velocity), as previously described (Westfall, M. V. Et al. (1997), Westfall, M. V. and Borton, A. R. (2003)), in 7-20 myocytes from 3-4 rats for each peptide concentration, bis-1, and media.

The subject of data set [2] is isolated adult rat cardiac myocytes. The data set is classed as cell-based. The note with it: peptides at 10^−8M or 10^−7M; peak shortening, departure and return velocity. From the text: Adult rat and rabbit ventricular cardiac myocytes were isolated as previously described (Westfall, M. V. Et al. (1997), Westfall, M. V. and Borton, A. R. (2003)). Hearts from Sprague-Dawley rats and New Zealand white rabbits were perfused and enzymatically digested to isolate myocytes; the protocol was approved by The University of Michigan University Committee on Use and Care of Animals (UCUCA) in accordance with university and federal regulatory guidelines. Aliquots of isolated ventricular myocytes were plated on laminin-coated glass coverslips in serum-containing Dulbecco's Modified Eagle Media (Invitrogen, CA, US) supplemented with 5% fetal bovine serum, and 50 U/ml penicillin and 50 μg/ml streptomycin (pen/strep; Sigma-Aldrich, MO, US). Two hours later, media was replaced with serum-free M199 (Invitrogen) supplemented with 1.8 mM Ca^2+, 10 mM HEPES, 10 mM glutathione, and pen/strep. Rat myocytes were transferred to a stimulation chamber and electrically paced the day after isolation (Zornik, E. Et al. (1999), Westfall, M. V. Et al. (1997)). Media was changed daily for all myocyte preparations.
Sarcomere shortening was detected using a video-based detection system (IonOptix, MA, USA) as described earlier (Westfall, M. V. and Borton, A. R. (2003)). Rat myocytes were paced at 0.2 Hz and rabbit myocytes were paced at 0.5 Hz or 1.0 Hz for these studies. Recordings were made prior to application of each peptide concentration, the protein kinase C (PKC) inhibitor bisindolylmaleimide-1, (bis-1; CalBiochem/EMD, NJ, US), or media only (control, C) and at 1, 3, 5, 10 and 15 minutes after application of peptide, bis-1, or media. Signal averaged data were analyzed to determine resting sarcomere length, shortening amplitude (peak shortening), shortening rate (departure velocity), and re-lengthening rate (return velocity), as previously described (Westfall, M. V. Et al. (1997), Westfall, M. V. and Borton, A. R. (2003)), in 7-20 myocytes from 3-4 rats for each peptide concentration, bis-1, and media.

For the next data set, the system named is mouse heart. The data set can be described thus: Echocardiography in mice after tail-vein injection. The data set is classed as in vivo. The procedure:
Echocardiograms were performed as previously described (Boluyl, M. O. Et al. (2004)) according to the recommendations of the American Society of Echocardiography. All echocardiography was performed by one registered echocardiographer. Female C57BL/6 mice were weighed to accurately calculate the amount of peptide delivered per kilogram body weight (kg bw). Animal use for echocardiography was approved by The University of Michigan UCUCA in accordance with university and federal regulatory guidelines. Physiological saline or peptide was intravenously delivered via tail-vein injections to a total volume of 150 μl to achieve 5 μmols or 500 ηmols hRFRP-1/kg bw. Each animal was used only once for an injectant, either physiological saline or peptide (n=4-5). […] Heart rate along with left ventricular end-systolic and end-diastolic dimensions were measured from the two-dimensional sector scans obtained from the parasternal long axis and apical four chamber views using the conventions of the American Society of Echocardiography. […] Left ventricular volumes were measured at end systole (Vols) and end diastole (Vold) and used to calculate stroke volume (SV=Vold−Vols) and ejection fraction (EF %=endocardial SV/endocardial Vold×100). Cardiac output (CO=endocardial SV×heart rate) was calculated from stroke volume and heart rate. […]

As for `CSCC[C@H](N)C(=O)N1CCC[C@H]1C(=O)N[C@@H](Cc1cnc[nH]1)C(=O)N[C@@H](CO)C(=O)N[C@@H](Cc1ccccc1)C(=O)N[C@@H](C)C(=O)N[C@@H](CC(N)=O)C(=O)N[C@@H](CC(C)C)C(=O)N1CCC[C@H]1C(=O)N[C@@H](CC(C)C)C(=O)N[C@@H](CCCNC(=N)N)C(=O)N[C@@H](Cc1ccccc1)C(N)=O` [hRFRP-1] (H-MPHSFANLPLRF-NH2), the “arrhythmic beats and after-contractions” value in data set [1] is “not observed”.
Regarding LPLAFamide (LPLAF-NH2), the “character relative to hRFRP-1 on myocyte contractile function (agonist, antagonist, reverse agonist; in words)” value in data set [2] is “hRFRP-1 antagonist”. Further, the “effect on the hRFRP-1-induced decrease of contractile performance in vivo” value with mouse heart (given with hRFRP-1, tail-vein injection) is “blocked the effects of hRFRP-1”. The “effect on cardiac function in vivo when applied alone (echocardiographic parameters)” value in the data set on mouse heart (tail-vein injection) was “slight increase in cardiac function; also recorded: enhances cardiac function”.

The record behind these values is patent US9527889B2, “RFamide-related peptides and methods thereof” (THE REGENTS OF THE UNIVERSITY OF MICHIGAN, priority 2010, dated 2016).
